Assay results: ChEMBL document CHEMBL1121499, “Experimental antiulcer drugs.4. 1,3-Disubstituted 2,4,5,6-tetrahydro-4,6,6 -trimethyl-2-phenylcyclopenta[c]pyrrole-4-carboxamides” (J Med Chem, 1980)

Experiments:
Parameters in all cases: dose 100 mg/kg, route oral
Conditions in all cases: in vivo, po
Rattus norvegicus [1] = assay: Tested for gastric antisecretory activity in the pyloric ligated rat by observing the pH of gastric contents at dose 100 mg/kg orally 1 hr prior to the 5-h pyloric ligation period; pH < 2 is inactive; assay type: ADME, organism-based, Stomach
Rattus norvegicus [2] = assay: Tested for gastric antisecretory activity in the pyloric ligated rat by observing the pH of gastric contents at dose 100 mg/kg orally 1 hr prior to the 5-h pyloric ligation period; assay type: ADME, organism-based, Stomach
Rattus norvegicus [3] = assay: Tested for gastric antisecretory activity in the pyloric ligated rat by observing the pH of gastric contents at dose 100 mg/kg orally 1 h prior to the 5-h pyloric ligation period; Inactive; assay type: organism-based, Stomach

CC1(C)CC(C)(C(N)=O)c2cn(-c3ccccc3)cc21 (stereo not drawn)
pH (Rattus norvegicus [1]): 1.1

CC1(C)CC(C)(C(N)=O)c2cn(-c3ccccc3)c(C=O)c21 (stereo not drawn)
pH (Rattus norvegicus [2]): 1.5

CC1(C)CC(C)(C(N)=O)c2c1c(C=O)n(-c1ccccc1)c2C=O (stereo not drawn)
pH (Rattus norvegicus [2]): 1.2

Cc1c2c(c(CO)n1-c1ccccc1)C(C)(C(N)=O)CC2(C)C (stereo not drawn)
pH (Rattus norvegicus [2]): 7

Cc1c2c(cn1-c1ccccc1)C(C)(C)CC2(C)C(N)=O (stereo not drawn)
pH (Rattus norvegicus [3]): 1.2

Cc1c2c(c(C=O)n1-c1ccccc1)C(C)(C)CC2(C)C(N)=O (stereo not drawn)
pH (Rattus norvegicus [2]): 1.5

CCc1c2c(c(CC)n1-c1ccccc1)C(C)(C(N)=O)CC2(C)C (stereo not drawn)
pH (Rattus norvegicus [1]): 1.1

Cc1c2c(c(C)n1-c1ccccc1)C(C)(C(N)=O)CC2(C)C (stereo not drawn)
pH (Rattus norvegicus [2]): 6.2

Cc1c2c(c(C=O)n1-c1ccccc1)C(C)(C(N)=O)CC2(C)C (stereo not drawn)
pH (Rattus norvegicus [2]): 1.2

Cc1c2c(c(CO)n1-c1ccccc1)C(C)(C)CC2(C)C(N)=O (stereo not drawn)
pH (Rattus norvegicus [2]): 5.7

Cc1c2c(cn1-c1ccccc1)C(C)(C(N)=O)CC2(C)C (stereo not drawn)
pH (Rattus norvegicus [2]): 2.6

CC1(C)CC(C)(C(N)=O)c2cn(-c3ccccc3)c(CO)c21 (stereo not drawn)
pH (Rattus norvegicus [2]): 6.4

CC1(C)CC(C)(C(N)=O)c2c1c(CO)n(-c1ccccc1)c2CO (stereo not drawn)
pH (Rattus norvegicus [1]): 1.2
